Where “and” joins values, the source holds several entries; their conditions need not be identical. Equal entries are not always repeated.
Settings: Liquid, Ebulliometric method (Recirculating still)

CC(=O)OC(C)C [1-methylethyl ethanoate]
Settings | vapor or sublimation pressure
304.07 K | 10.57 kPa
306.28 K | 11.58 kPa
308.95 K | 13.35 kPa
312.53 K | 15.79 kPa
316.52 K | 19 kPa
317.77 K | 20 kPa
320.42 K | 22.45 kPa
323.45 K | 25.6 kPa
325.91 K | 28.24 kPa
328.97 K | 31.94 kPa
332.14 K | 36.19 kPa
334.75 K | 39.98 kPa and 40 kPa
337.73 K | 44.85 kPa
340.95 K | 50.51 kPa
344.18 K | 56.66 kPa
345.94 K | 60.03 kPa and 60 kPa
348.17 K | 65.32 kPa
350.35 K | 70.47 kPa
352.47 K | 75.52 kPa
354.29 K | 79.97 kPa and 80 kPa
356.48 K | 85.89 kPa
358.2 K | 90.5 kPa
359.77 K | 95.13 kPa
361.79 K | 101.26 kPa and 101.3 kPa

CCO [ethanol]
Settings | vapor or sublimation pressure
307.52 K | 13.19 kPa
309.89 K | 15.05 kPa
312.21 K | 17.13 kPa
315.24 K | 20 kPa
318.42 K | 23.45 kPa
320.31 K | 25.72 kPa
322.13 K | 28.12 kPa
324.1 K | 30.85 kPa
325.96 K | 33.68 kPa
327.52 K | 36.2 kPa
329.57 K | 40 kPa
329.58 K | 40 kPa
331.49 K | 43.49 kPa
333.45 K | 47.62 kPa
335.16 K | 51.36 kPa
336.76 K | 55.12 kPa
338.72 K | 60.05 kPa
338.73 K | 60 kPa
340.19 K | 63.84 kPa
341.5 K | 67.56 kPa
343.06 K | 72.1 kPa
344.37 K | 75.99 kPa
345.69 K | 79.99 kPa and 80 kPa
347.1 K | 84.65 kPa
348.51 K | 89.37 kPa
349.83 K | 94.48 kPa
351.55 K | 101.31 kPa
351.65 K | 101.3 kPa

Source: the NIST ThermoML archive (doi:10.1021/acs.jced.8b00005)
